Assays:
Settings in all cases: 72 h
[1] = tested on: HepG2; assay: relative viability EC50 (midpoint between 100% and the lowest measured viability); higher = less toxic
[2] = tested on: Calu-3; assay: as above
[3] = tested on: U2OS; assay: as above
[4] = tested on: Vero E6; assay: as above
[5] = tested on: Caco-2; assay: as above
[6] = tested on: HepG2; assay: drug sensitivity score (DSS) for viability; higher = more toxic; extreme values may be limits of the assay
[7] = tested on: Calu-3; assay: as above
[8] = tested on: U2OS; assay: as above
[9] = tested on: Vero E6; assay: as above
[10] = tested on: Caco-2; assay: as above
[11] = tested on: HepG2; assay: cell viability relative to DMSO; higher = less toxic
[12] = tested on: Calu-3; assay: as above
[13] = tested on: U2OS; assay: as above
[14] = tested on: Vero E6; assay: as above
[15] = tested on: Caco-2; assay: as above

| SMILES | relative viability EC50 [1] [µM] | relative viability EC50 [2] [µM] | relative viability EC50 [3] [µM] | relative viability EC50 [4] [µM] | relative viability EC50 [5] [µM] | drug sensitivity score [6] | drug sensitivity score [7] | drug sensitivity score [8] | drug sensitivity score [9] | drug sensitivity score [10] | cell viability ([11]; 1 nM) [%] | cell viability ([11]; 10 nM) [%] | cell viability ([11]; 100 nM) [%] | cell viability ([11]; 1000 nM) [%] | cell viability ([11]; 10000 nM) [%] | cell viability ([12]; 1 nM) [%] | cell viability ([12]; 10 nM) [%] | cell viability ([12]; 100 nM) [%] | cell viability ([12]; 1000 nM) [%] | cell viability ([12]; 10000 nM) [%] | cell viability ([13]; 1 nM) [%] | cell viability ([13]; 10 nM) [%] | cell viability ([13]; 100 nM) [%] | cell viability ([13]; 1000 nM) [%] | cell viability ([13]; 10000 nM) [%] | cell viability ([14]; 1 nM) [%] | cell viability ([14]; 10 nM) [%] | cell viability ([14]; 100 nM) [%] | cell viability ([14]; 1000 nM) [%] | cell viability ([14]; 10000 nM) [%] | cell viability ([15]; 1 nM) [%] | cell viability ([15]; 10 nM) [%] | cell viability ([15]; 100 nM) [%] | cell viability ([15]; 1000 nM) [%] | cell viability ([15]; 10000 nM) [%] |
| --- | --- | --- | --- | --- | --- | --- | --- | --- | --- | --- | --- | --- | --- | --- | --- | --- | --- | --- | --- | --- | --- | --- | --- | --- | --- | --- | --- | --- | --- | --- | --- | --- | --- | --- | --- |
| CCC(=O)NC[C@H](Cc1ccc(OCCc2nc(-c3ccccc3)oc2C)cc1)N/C(C)=C\C(=O)c1ccc(C(F)(F)F)cc1 [GW-6471] | > 10 | > 10 | > 10 | > 10 | > 10 | 0 | 0 | 0 | 0 | 0 | 97.3 | 99.5 | 93.8 | 101 | 109 | 101 | 94.7 | 103 | 97.4 | 102 | 96.6 | 104 | 101 | 100 | 95.4 | 98.6 | 97.6 | 96.1 | 89.3 | 94.8 | 94.5 | 102 | 106 | 97.8 | 93.6 |
| C[N+](C)(C)CCCCCNCC12CC3CC(CC(C3)C1)C2 [IEM1460] | > 10 | > 10 | > 10 | > 10 | > 10 | 0 | 0 | 0 | 0 | 0.1 | 101 | 85.2 | 104 | 93.9 | 106 | 91.1 | 104 | 96.1 | 98.2 | 98.4 | 94.1 | 102 | 99 | 103 | 95.7 | 105 | 91 | 105 | 92.5 | 103 | 96.2 | 103 | 95 | 99.6 | 88.1 |
| COC(=O)c1csc(C(=O)c2c[nH]c3ccccc23)n1 [ITE] | > 10 | > 10 | > 10 | > 10 | > 10 | 2 | 0 | 0 | 0 | 0 | 104 | 112 | 92.8 | 84.8 | 85.5 | 105 | 101 | 103 | 105 | 97.5 | 101 | 104 | 97.1 | 102 | 96.3 | 95 | 96.1 | 92.1 | 98.6 | 97.4 | 96.1 | 105 | 101 | 108 | 94.2 |

From the supplement of paper PMC13380429
